In US8614327B2 (Vertex Pharmaceuticals Incorporated, priority 2004, dated 2013):

Molecular target: T1, ΔF508-CFTR (Homo sapiens, UniProt P13569, DEL508-508)
T1 construct: expressed in transfected cells
Test: Membrane potential optical (FRET/VIPR) assay, identification of potentiator compounds
Assay type: cell-based
Conditions: Table 3, assay not given; for % Activity: relative efficacy
Procedure, shortened: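 NIH3T3 mouse fibroblasts stably expressing ΔF508-CFTR, temperature-corrected 24 h at 27° C., read on VIPR by FRET between CC2-DMPE and DiSBAC2(3). Potentiators identified in a double-addition format, first adding chloride-free (gluconate) medium with or without compound.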

T1 sequence (P13569 with tags, fused parts or gaps DEL508-508): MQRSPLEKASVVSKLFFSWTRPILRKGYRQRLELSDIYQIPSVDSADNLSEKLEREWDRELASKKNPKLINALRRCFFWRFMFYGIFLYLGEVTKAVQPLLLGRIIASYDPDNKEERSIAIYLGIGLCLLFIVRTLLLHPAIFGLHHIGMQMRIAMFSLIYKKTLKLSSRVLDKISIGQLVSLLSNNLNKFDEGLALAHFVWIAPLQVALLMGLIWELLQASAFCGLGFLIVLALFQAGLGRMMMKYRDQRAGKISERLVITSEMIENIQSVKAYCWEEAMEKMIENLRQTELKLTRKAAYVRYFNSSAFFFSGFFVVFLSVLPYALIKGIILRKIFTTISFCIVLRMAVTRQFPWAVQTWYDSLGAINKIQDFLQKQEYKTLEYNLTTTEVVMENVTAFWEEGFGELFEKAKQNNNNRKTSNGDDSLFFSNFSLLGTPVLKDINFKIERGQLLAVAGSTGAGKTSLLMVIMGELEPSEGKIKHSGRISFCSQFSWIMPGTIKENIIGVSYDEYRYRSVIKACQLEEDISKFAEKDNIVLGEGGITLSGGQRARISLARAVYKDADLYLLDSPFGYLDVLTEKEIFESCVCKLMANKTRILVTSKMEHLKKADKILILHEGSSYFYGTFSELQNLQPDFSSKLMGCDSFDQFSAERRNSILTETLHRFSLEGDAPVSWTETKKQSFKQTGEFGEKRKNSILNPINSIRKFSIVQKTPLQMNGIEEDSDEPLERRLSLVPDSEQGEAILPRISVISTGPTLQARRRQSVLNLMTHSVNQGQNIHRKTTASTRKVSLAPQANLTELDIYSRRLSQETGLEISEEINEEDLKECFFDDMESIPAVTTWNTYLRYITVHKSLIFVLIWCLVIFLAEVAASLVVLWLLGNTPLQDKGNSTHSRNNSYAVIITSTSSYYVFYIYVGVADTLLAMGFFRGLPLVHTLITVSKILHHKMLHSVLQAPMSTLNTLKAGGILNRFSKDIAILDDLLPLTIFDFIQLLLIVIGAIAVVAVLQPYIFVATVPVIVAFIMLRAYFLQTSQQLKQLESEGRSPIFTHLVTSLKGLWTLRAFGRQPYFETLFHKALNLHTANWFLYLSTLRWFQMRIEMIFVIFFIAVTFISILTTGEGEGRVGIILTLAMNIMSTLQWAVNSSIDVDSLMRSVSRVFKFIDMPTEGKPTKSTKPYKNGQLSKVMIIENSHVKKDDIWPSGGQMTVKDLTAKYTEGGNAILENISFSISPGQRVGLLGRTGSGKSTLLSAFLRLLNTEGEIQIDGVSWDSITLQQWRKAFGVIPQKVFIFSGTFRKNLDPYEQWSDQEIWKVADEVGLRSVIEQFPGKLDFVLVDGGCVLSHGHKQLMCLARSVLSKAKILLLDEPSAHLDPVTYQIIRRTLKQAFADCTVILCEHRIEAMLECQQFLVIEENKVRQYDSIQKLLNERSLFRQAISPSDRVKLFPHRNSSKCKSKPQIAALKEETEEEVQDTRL

Compound	EC50 [µM]	% Activity
O=C(Nc1ccc(N2CCCC2)cc1C(F)(F)F)c1c[nH]c2ccc(F)cc2c1=O [Compound 562, 6-fluoro-4-oxo-N-[4-pyrrolidin-1-yl-2-(trifluoromethyl)phenyl]-1H-quinoline-3-carboxamide]	< 10	++ (between 25% to 100%)
O=C(Nc1cc(O)cc(C(F)(F)F)c1)c1c[nH]c2ccccc2c1=O [Compound 563, N-[3-hydroxy-5-(trifluoromethyl)phenyl]-4-oxo-1H-quinoline-3-carboxamide]	< 10	++ (between 25% to 100%)
O=C(Nc1ccc(C2CCCCC2)c(O)c1)c1c[nH]c2ccccc2c1=O [Compound 564, N-(4-cyclohexyl-3-hydroxy-phenyl)-4-oxo-1H-quinoline-3-carboxamide]	< 10	++ (between 25% to 100%)
Cc1cccc2[nH]cc(C(=O)Nc3cc4[nH]ccc4cc3C(C)(C)C)c(=O)c12 [Compound 565, 5-methyl-4-oxo-N-(5-tert-butyl-1H-indol-6-yl)-1H-quinoline-3-carboxamide]	< 10	++ (between 25% to 100%)
COCCn1ccc2cc(C(F)(F)F)c(NC(=O)c3c[nH]c4ccc(F)cc4c3=O)cc21 [Compound 566, 6-fluoro-N-[1-(2-methoxyethyl)-5-(trifluoromethyl)indol-6-yl]-4-oxo-1H-quinoline-3-carboxamide]	< 10	++ (between 25% to 100%)
O=C(Nc1ccc(N2CCC[C@H]2C(=O)O)cc1C(F)(F)F)c1c[nH]c2ccccc2c1=O [Compound 567, (S)-1-[4-[(4-oxo-1H-quinolin-3-yl)carbonylamino]-3-(trifluoromethyl)phenyl]pyrrolidine-2-carboxylic acid]	< 10	++ (between 25% to 100%)
Cc1ccc2[nH]cc(C(=O)Nc3ccc(N4[C@H](C)CC[C@H]4C)cc3C(F)(F)F)c(=O)c2c1 [Compound 569, N-(4-((2R,5R)-2,5-dimethylpyrrolidin-1-yl)-2-(trifluoromethyl)phenyl)-6-methyl-4-oxo-1,4-dihydroquinoline-3-carboxamide]	< 10	++ (between 25% to 100%)
CC(C)c1cc(C(F)(F)F)c(NC(=O)c2c[nH]c3ccccc3c2=O)cc1OCc1ccccc1 [Compound 570, N-[5-benzyloxy-4-isopropyl-2-(trifluoromethyl)phenyl]-4-oxo-1H-quinoline-3-carboxamide]	< 10	++ (between 25% to 100%)
COc1nc(NC(=O)c2c[nH]c3ccccc3c2=O)ccc1C(F)(F)F [Compound 571, N-[6-methoxy-5-(trifluoromethyl)-2-pyridyl]-4-oxo-1H-quinoline-3-carboxamide]	< 10	+ (<25%)
C[C@@H]1CCCN1c1ccc(NC(=O)c2c[nH]c3ccccc3c2=O)c(C(F)(F)F)c1 [Compound 572, (R)-N-(4-(2-methylpyrrolidin-1-yl)-2-(trifluoromethyl)phenyl)-4-oxo-1,4-dihydroquinoline-3-carboxamide]	–	++ (between 25% to 100%)
CC(C)c1ccc(NC(=O)c2c[nH]c3c(F)cccc3c2=O)c(C(F)(F)F)c1 [Compound 573, 8-fluoro-N-[4-isopropyl-2-(trifluoromethyl)phenyl]-4-oxo-1H-quinoline-3-carboxamide]	< 10	++ (between 25% to 100%)
O=C(Nc1cc(O)cc(C(F)(F)F)c1)c1c[nH]c2ccc(F)cc2c1=O [Compound 574, 6-fluoro-N-[3-hydroxy-5-(trifluoromethyl)phenyl]-4-oxo-1H-quinoline-3-carboxamide]	< 10	++ (between 25% to 100%)
CC(C)c1ccc(NC(=O)c2c[nH]c3ccccc3c2=O)cc1O [Compound 575, N-(3-hydroxy-4-isopropyl-phenyl)-4-oxo-1H-quinoline-3-carboxamide]	< 10	++ (between 25% to 100%)
Cc1ccc2c(=O)c(C(=O)Nc3cc4[nH]ccc4cc3C(F)(F)F)c[nH]c2c1 [Compound 576, 7-methyl-4-oxo-N-[5-(trifluoromethyl)-1H-indol-6-yl]-1H-quinoline-3-carboxamide]	< 10	++ (between 25% to 100%)
Cc1ccc(C(F)(F)F)cc1NC(=O)c1c[nH]c2ccccc2c1=O [Compound 577, N-[2-methyl-5-(trifluoromethyl)phenyl]-4-oxo-1H-quinoline-3-carboxamide]	< 10	++ (between 25% to 100%)
Cc1cccc2[nH]cc(C(=O)Nc3ccc(N4CCC(C)(C)C4)cc3C(F)(F)F)c(=O)c12 [Compound 578, N-[4-(3,3-dimethylpyrrolidin-1-yl)-2-(trifluoromethyl)phenyl]-5-methyl-4-oxo-1H-quinoline-3-carboxamide]	< 10	++ (between 25% to 100%)
O=C(Nc1ccc(OC(F)(F)F)c(N2CCCC2)c1)c1c[nH]c2ccccc2c1=O [Compound 579, 4-oxo-N-[3-pyrrolidin-1-yl-4-(trifluoromethoxy)phenyl]-1H-quinoline-3-carboxamide]	< 10	++ (between 25% to 100%)
CC(C)(C)c1cc(C(C)(C)C)c(NC(=O)c2c[nH]c3c(C(F)(F)F)cccc3c2=O)cc1O [Compound 580, N-(5-hydroxy-2,4-ditert-butyl-phenyl)-4-oxo-8-(trifluoromethyl)-1H-quinoline-3-carboxamide]	< 10	+ (<25%)
Cc1cccc2[nH]cc(C(=O)Nc3ccc(N4CCC[C@@H]4C)nc3C(F)(F)F)c(=O)c12 [Compound 581, (S)-5-methyl-N-(6-(2-methylpyrrolidin-1-yl)-2-(trifluoromethyl)pyridin-3-yl)-4-oxo-1,4-dihydroquinoline-3-carboxamide]	< 10	++ (between 25% to 100%)
Cc1cccc2[nH]cc(C(=O)Nc3ccc(N4C[C@@H]5CC[C@H]4C5)cc3C(F)(F)F)c(=O)c12 [Compound 582, N-(4-((1S,4R)-2-azabicyclo[2.2.1]heptan-2-yl)-2-(trifluoromethyl)phenyl)-5-methyl-4-oxo-1,4-dihydroquinoline-3-carboxamide]	< 10	++ (between 25% to 100%)
COc1ccc2c(=O)c(C(=O)Nc3cc(O)c(C(C)(C)C)cc3C(C)(C)C)c[nH]c2c1 [Compound 583, N-(5-hydroxy-2,4-ditert-butyl-phenyl)-7-methoxy-4-oxo-1H-quinoline-3-carboxamide]	< 10	++ (between 25% to 100%)
COc1ccc2[nH]cc(C(=O)Nc3cc(O)c(C4(C)CCCCC4)cc3F)c(=O)c2c1 [Compound 584, N-[2-fluoro-5-hydroxy-4-(1-methylcyclohexyl)-phenyl]-6-methoxy-4-oxo-1H-quinoline-3-carboxamide]	< 10	++ (between 25% to 100%)
CC(C)(C)c1cc(C(C)(C)C)c(NC(=O)c2c[nH]c3cccc(N)c3c2=O)cc1O [Compound 585, 5-amino-N-(5-hydroxy-2,4-ditert-butyl-phenyl)-4-oxo-1H-quinoline-3-carboxamide]	< 10	+++ (>100%)
CC(C)c1ccc(NC(=O)c2c[nH]c3cccc(O)c3c2=O)cc1O [Compound 587, 5-hydroxy-N-(3-hydroxy-4-isopropyl-phenyl)-4-oxo-1H-quinoline-3-carboxamide]	< 10	++ (between 25% to 100%)
Cc1cc(C(C)(C)C)c(O)cc1NC(=O)c1c[nH]c2cccc(O)c2c1=O [Compound 588, 5-hydroxy-N-(5-hydroxy-2-methyl-4-tert-butyl-phenyl)-4-oxo-1H-quinoline-3-carboxamide]	< 10	++ (between 25% to 100%)
CC(C)c1ccc(NC(=O)c2c[nH]c3cc(F)c(F)cc3c2=O)c(C(F)(F)F)c1 [Compound 589, 6,7-difluoro-N-[4-isopropyl-2-(trifluoromethyl)phenyl]-4-oxo-1H-quinoline-3-carboxamide]	< 10	++ (between 25% to 100%)
CC(CO)(CO)c1ccc(NC(=O)c2c[nH]c3ccccc3c2=O)cc1 [Compound 590, N-[4-[2-hydroxy-1-(hydroxymethyl)-1-methyl-ethyl]phenyl]-4-oxo-1H-quinoline-3-carboxamide]	< 10	+ (<25%)
CCc1cc2cc[nH]c2cc1NC(=O)c1c[nH]c2cccc(O)c2c1=O [Compound 591, N-(5-ethyl-1H-indol-6-yl)-5-hydroxy-4-oxo-1H-quinoline-3-carboxamide]	< 10	++ (between 25% to 100%)
Cc1cccc2[nH]cc(C(=O)Nc3ccc(N4[C@H](C)CC[C@@H]4C)cc3C(F)(F)F)c(=O)c12 [Compound 592, N-(4-((2R,5S)-2,5-dimethylpyrrolidin-1-yl)-2-(trifluoromethyl)phenyl)-5-methyl-4-oxo-1,4-dihydroquinoline-3-carboxamide]	< 10	++ (between 25% to 100%)
O=C(Nc1cc(N2CCCC2)cc(C(F)(F)F)c1)c1c[nH]c2ccccc2c1=O [Compound 593, 4-oxo-N-[3-pyrrolidin-1-yl-5-(trifluoromethyl)phenyl]-1H-quinoline-3-carboxamide]	< 10	++ (between 25% to 100%)
